Reference: US8841257B2, “Inhibitors of STAT3 and uses thereof” (Board of Regents, The University of Texas System, priority 2009, dated 2014)
“Also recorded” adds a separate entry of the source.

Biological target: T1, STAT3 (Homo sapiens, UniProt P40763)
Assay: Inhibition of Stat3 tyrosine705 phosphorylation in MDA-MB-468 cells
Format: cell-based
Set-up: host or cells: MDA-MB-468 breast tumor cells
Details: prodrug in DMSO, 2 h
Experimental: Inhibition of Stat3 tyrosine705 phosphorylation in MDA-MB-468 cells. MDA-MB-468 breast tumor cells (0.4×10^6) were plated onto 35 mm culture dishes and were allowed to grow overnight. Prodrugs were prepared as 10 mM stock solutions in DMSO and aliquots were added to the culture media to give the correct final concentrations. After 2 h the cells were washed with ice cold phosphate buffered saline. Washed cells were treated with lysis buffer (50 mM Hepes, pH 7.4, 150 mM NaCl, 1.5 mM MgCl2, 1 mM EGTA, 100 mM NaF, 10 mM sodium pyrophosphate, 10% glycerol, 1% Triton X-100, 1 mM PMSF, 1 mM Na3VO4, 10 μg/mL leupeptin and 10 μg/mL aprotinin). Cell-free detergent extracts were centrifuged at 15,000 rpm in a microcentriguge for 30 min at 4° C. and the protein concentrations of the supernatants determined. Aliquots containing 12 μg of protein were separated on 8% SDS-PAGE and were transferred to PVDF filters. The filters were blocked with 5% bovine serum albumin and were probed with pStat3^Y705 antibody followed by secondary antibody, whose signal was detected with an enhanced chemiluminescence kit (ECL, Amersham, Chicago, Ill.). Filters were stripped with stripping buffer (62.5 mM Tris, pH 6.8, 2% SDS, and 0.1 M 2-mercaptoethanol) at 50° C. for 30 min. Filters were then probed with total Stat3 antibody and visualized with chemiluminescence as above.

T1 sequence (P40763 whole entry): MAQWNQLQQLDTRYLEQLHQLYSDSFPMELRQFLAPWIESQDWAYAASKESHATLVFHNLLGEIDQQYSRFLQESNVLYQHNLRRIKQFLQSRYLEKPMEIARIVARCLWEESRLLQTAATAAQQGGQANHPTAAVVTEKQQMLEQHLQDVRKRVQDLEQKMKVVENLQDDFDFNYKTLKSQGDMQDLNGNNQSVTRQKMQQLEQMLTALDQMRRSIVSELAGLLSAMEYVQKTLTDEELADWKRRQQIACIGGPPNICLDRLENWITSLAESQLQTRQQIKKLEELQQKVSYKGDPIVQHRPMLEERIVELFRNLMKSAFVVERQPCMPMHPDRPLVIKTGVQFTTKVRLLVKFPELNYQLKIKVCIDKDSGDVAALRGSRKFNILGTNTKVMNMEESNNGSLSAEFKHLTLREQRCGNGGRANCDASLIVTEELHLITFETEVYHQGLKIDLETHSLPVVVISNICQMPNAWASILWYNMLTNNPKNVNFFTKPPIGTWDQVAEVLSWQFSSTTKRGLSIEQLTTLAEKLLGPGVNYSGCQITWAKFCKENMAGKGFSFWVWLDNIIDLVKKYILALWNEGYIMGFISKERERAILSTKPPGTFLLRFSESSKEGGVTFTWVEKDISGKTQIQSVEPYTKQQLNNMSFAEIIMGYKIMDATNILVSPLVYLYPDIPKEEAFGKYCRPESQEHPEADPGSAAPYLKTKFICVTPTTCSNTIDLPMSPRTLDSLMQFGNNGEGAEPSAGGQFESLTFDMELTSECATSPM

| inhibition of Tyr705 phosphorylation of Stat3 (potency in words) | Compound |
| --- | --- |
| inhibit phosphorylation of STAT3 | CCCC[C@H](NC(=O)/C=C(\C)c1ccc(C(F)(F)P(=O)(OCOC(=O)C(C)(C)C)OCOC(=O)C(C)(C)C)cc1)C(=O)N1CC(C)(C)C[C@H]1C(=O)N[C@H](C)CCC(N)=O [Example 25, (2E)-3-[4-[[bis[(2,2-dimethyl-1-oxopropoxy)methoxy]phosphinyl]difluoromethyl]phenyl]-but-2-enoyl-norleucinyl-4,4-dimethylprolinyl-(R)-4-aminopentamide] |
| inhibit phosphorylation of STAT3 | CCCC[C@H](NC(=O)/C=C(\C)c1ccc(C(F)(F)P(=O)(OCOC(=O)C(C)(C)C)OCOC(=O)C(C)(C)C)cc1)C(=O)N1CC(F)(F)C[C@H]1C(=O)N[C@H](C)CCC(N)=O [Example 24, (2E)-3-[4-[[bis[(2,2-dimethyl-1-oxopropoxy)methoxy]phosphinyl]difluoromethyl]phenyl]-but-2-enoyl-norleucinyl-4,4-difluoroprolinyl-(R)-4-aminopentamide] |

Continued, compound first:

| Compound | inhibition of Tyr705 phosphorylation of Stat3 (potency in words) |
| --- | --- |
| CCCC[C@H](NC(=O)/C=C(\C)c1ccc(C(F)(F)P(=O)(OCOC(=O)C(C)(C)C)OCOC(=O)C(C)(C)C)cc1)C(=O)N1CCC[C@H]1C(=O)N[C@H](C)CCC(N)=O [Example 23, (2E)-3-[4-[[bis[(2,2-dimethyl-1-oxopropoxy)methoxy]phosphinyl]difluoromethyl]phenyl]-but-2-enoyl-norleucinyl-prolinyl-(R)-4-aminonentamide] | inhibit phosphorylation of STAT3 |
| CCCC[C@H](NC(=O)/C=C(\C)c1ccc(C(F)(F)P(=O)(OCOC(=O)C(C)(C)C)OCOC(=O)C(C)(C)C)cc1)C(=O)N1C[C@@H]2CC2[C@@H]1C(=O)N[C@H](C)CCC(N)=O (stereo partly drawn) [Example 19, (2E)-3-[4-[[bis[(2,2-dimethyl-1-oxopropoxy)methoxy]phosphinyl]difluoromethyl]phenyl]-but-2-enoyl-norleucinyl-(2R,3S,4R)-methanoprolinyl-(R)-4-aminopentamide] | very weak inhibitors; also recorded: much less potent |
| CCCC[C@H](NC(=O)/C=C(\C)c1ccc(C(F)(F)P(=O)(OCOC(=O)C(C)(C)C)OCOC(=O)C(C)(C)C)cc1)C(=O)N1C[C@@H]2CC2[C@@H]1C(=O)N[C@@H](CCC(N)=O)[C@@H](C)OCc1ccccc1 (stereo partly drawn) [Example 17, (2E)-3-[4-[[bis[(2,2-dimethyl-1-oxopropoxy)methoxy]phosphinyl]difluoromethyl]phenyl]-but-2-enoyl-norleucinyl-(2R,3S,4R)-methanoprolinyl-(4S,5R)-4-amino-5-benzyloxyhexamide] | very weak inhibitors; also recorded: much less potent |

Biological target: T1, STAT3
Assay: Inhibition of STAT3 phosphorylation in BT20 breast tumor cells (western blot)
Format: cell-based
Set-up: endogenous in cells; host or cells: BT20 breast tumor cells
Details: 5 μM; BT-20 cells
Experimental: Inhibition of STAT3 in BT20 Breast Tumor Cells. General procedure: 35 mm petri dishes were plated with 300,000 BT20 cells in 2 mL RPMI1640 media containing 10% FBS, […], streptomycin, and glutamine. Prodrugs were dissolved in DMSO and were added to the cells with fresh media at varying concentrations. After 2 h the cells were washed with ice cold phosphate buffered saline. Washed cells were treated with lysis buffer (50 mM Hepes, pH 7.4, 150 mM NaCl, 1.5 mM MgCl2, 1 mM EGTA, 100 mM NaF, 10 mM sodium pyrophosphate, 10% glycerol, 1% Triton X-100, 1 mM PMSF, 1 mM Na3VO4, 10 μg/mL leupeptin and 10 μg/mL aprotinin). Cell-free detergent extracts were centrifuged at 15,000 rpm in a microcentriguge for 30 min at 4° C. and the protein concentrations of the supernatants determined. Aliquots containing 12 μg of protein were separated on 8% SDS-PAGE and were transferred to PVDF filters. The filters were blocked with 5% bovine serum albumin and were probed with pStat3^Y705 antibody followed by secondary antibody, whose signal was detected with an enhanced chemiluminescence kit (ECL, Amersham, Chicago, Ill.). Filters were stripped with stripping buffer (62.5 mM Tris, pH 6.8, 2% SDS, and 0.1 M 2-mercaptoethanol) at 50° C. for 30 min. Filters were then probed with total Stat3 antibody and visualized with chemiluminescence as above.
Because DMSO is toxic, other formulations were evaluated for potential use in animal models. The compound of Example 1 was dissolved in EtOH, 20% (w/v) Trappsol (hydroxypropyl β-cyclodextran, pharmaceutical grade), or a liposomal formulation to a concentration of 5 mM. These formulations were given to cells at 0.1, 0.5, and 5 μM concentrations. At two hours, cells were lysed and pSTAT3 levels were determined by Western Blot (FIG. 3). Different formulations have little effect on inhibition of STAT3. The compound of Example 1 was dissolved in DMSO, EtOH, Trappsol, or as a 10 mol % mixture in dimyristoylphosphatidyl choline and applied to BT20 cell in culture. After two hours, cells were lysed and pSTAT3 levels determined by Western blot. To prepare liposomes a solution of 1.0 mg of the compound of Example 1, 7.2 mg of DMPC, 0.41 mg of Tween 20 in 1.0 mL of tert-butanol was lyophilized. A control lipid formulation of 7.2 mg of DMPC and 0.41 mg of Tween 20 in 1.0 mL of tert-butanol was lyophilized. These samples were mixed with 236 μL of H2O and were vortexed and sonicated for 5 min.
The compounds are selective for STAT3 over STAT1 in BT20 breast tumor cells. BT20 cells prepared as above and were treated with 5 μM of the compound of Example 1 for two hours then were treated with 25 ng/mL of interferon γ (IFNγ). […] (FIG. 4, bottom panel).
Time course of inhibition of STAT3 phosphorylation in BT20 cells. BT20 cells were plated as above and treated with the compounds from Examples 1 and 6 and western blots were performed at varying time intervals.

| Compound | phosphorylation of STAT3 at the indicated time points |
| --- | --- |
| C/C(=C\C(=O)N[C@H]1CCc2cccc3c2N(C1=O)[C@H](C(=O)N[C@H](C)CCC(N)=O)C3)c1ccc(OP(=O)(OCOC(=O)C(C)(C)C)OCOC(=O)C(C)(C)C)cc1 [Example 6, (2E)-3-[4-[[bis[(2,2-dimethyl-1-oxopropoxy)methoxy]phosphinyl]oxy]phenyl]-but-2-enoyl-Haic-(R)-4-aminopentamide] | inhibit the phosphorylation of STAT3 |
